{
  "source": "patent US11180504B2",
  "about": "(ORCHID PHARMA LTD., priority 2016, dated 2021)",
  "key": {"[1]": {"tested_on": "carbapenemase producing K. pneumoniae", "test": "MIC by broth micro-dilution (CLSI), carbapenemase producing K. pneumoniae", "type": "cell-based, Klebsiella pneumoniae", "conditions": "Klebsiella pneumoniae, ATCCBAA1705, KPC-2 K. pneumoniae ATCC BAA-1705; read-out: MIC"}, "[2]": {"tested_on": "methicillin-sensitive Staphylococcus aureus", "test": "MIC by broth micro-dilution (CLSI), methicillin-sensitive S. aureus", "type": "cell-based", "conditions": "Staphylococcus aureus, ATCC 29213 / MSSA, MSSA S. aureus ATCC29213; read-out: MIC"}, "[3]": {"tested_on": "carbapenem sensitive Pseudomonas aeruginosa", "test": "MIC by broth micro-dilution (CLSI), carbapenem sensitive P. aeruginosa", "type": "cell-based", "conditions": "Pseudomonas aeruginosa, ATCC27853, Meropenem susceptible P. aeruginosa ATCC27853; read-out: MIC"}, "[4]": {"tested_on": "carbapenem sensitive Escherichia coli", "test": "MIC by broth micro-dilution (CLSI), carbapenem sensitive E. coli", "type": "cell-based", "conditions": "Escherichia coli, ATCC25922, ESBL −ve E. coli ATCC25922; read-out: MIC"}, "[5]": {"tested_on": "extended spectrum β lactamase (ESBL) SHV18 producing Klebsiella pneumoniae", "test": "MIC by broth micro-dilution (CLSI), ESBL SHV18 producing K. pneumoniae", "type": "cell-based", "conditions": "Klebsiella pneumoniae, ATCC700603, 22 h, ESBL +ve (SHV-18) K. pneumoniae ATCC700603; read-out: MIC"}},
  "data": [
    {"smiles": "CCCCS(=O)(=O)N[C@H](C)[C@H]1C(=O)N2C(C(=O)O)=C(S[C@@H]3CN[C@H](C(=O)N(C)C)C3)[C@H](C)[C@H]12", "note": "[Example 18]", "values": [
      {"measurement": "MIC", "setting": "[1]", "result": 8, "unit": "µg/mL"},
      {"measurement": "MIC", "setting": "[2]", "result": 8, "unit": "µg/mL"},
      {"measurement": "MIC", "setting": "[3]", "result": 32, "unit": "µg/mL"},
      {"measurement": "MIC", "setting": "[4]", "result": 4, "unit": "µg/mL"},
      {"measurement": "MIC", "setting": "[5]", "result": 64, "unit": "µg/mL"}
    ]},
    {"smiles": "C[C@@H](NS(=O)(=O)C(F)(F)F)[C@H]1C(=O)N2C(C(=O)O)=C(S[C@@H]3CN[C@H](CNS(N)(=O)=O)C3)[C@H](C)[C@H]12", "note": "[Example 19]", "values": [
      {"measurement": "MIC", "setting": "[1]", "result": "> 128", "unit": "µg/mL"},
      {"measurement": "MIC", "setting": "[2]", "result": 1, "unit": "µg/mL"},
      {"measurement": "MIC", "setting": "[3]", "result": 128, "unit": "µg/mL"},
      {"measurement": "MIC", "setting": "[4]", "result": 1, "unit": "µg/mL"},
      {"measurement": "MIC", "setting": "[5]", "result": 8, "unit": "µg/mL"}
    ]},
    {"smiles": "CCOC(=S)N[C@H](C)[C@H]1C(=O)N2C(C(=O)O)=C(S[C@@H]3CN[C@H](C(=O)N(C)C)C3)[C@H](C)[C@H]12", "note": "[Example 20]", "values": [
      {"measurement": "MIC", "setting": "[1]", "result": 16, "unit": "µg/mL"},
      {"measurement": "MIC", "setting": "[2]", "result": 2, "unit": "µg/mL"},
      {"measurement": "MIC", "setting": "[3]", "result": 128, "unit": "µg/mL"},
      {"measurement": "MIC", "setting": "[4]", "result": 1, "unit": "µg/mL"},
      {"measurement": "MIC", "setting": "[5]", "result": 8, "unit": "µg/mL"}
    ]},
    {"smiles": "COCC(=O)N[C@H](C)[C@H]1C(=O)N2C(C(=O)O)=C(S[C@@H]3CN[C@H](C(=O)N(C)C)C3)[C@H](C)[C@H]12", "note": "[Example 21]", "values": [
      {"measurement": "MIC", "setting": "[1]", "result": "4 to 16", "unit": "µg/mL"},
      {"measurement": "MIC", "setting": "[2]", "result": 2, "unit": "µg/mL"},
      {"measurement": "MIC", "setting": "[3]", "result": "> 128", "unit": "µg/mL"},
      {"measurement": "MIC", "setting": "[4]", "result": 2, "unit": "µg/mL"},
      {"measurement": "MIC", "setting": "[5]", "result": 4, "unit": "µg/mL"}
    ]},
    {"smiles": "CC(C)OC(=O)N[C@H](C)[C@H]1C(=O)N2C(C(=O)O)=C(S[C@@H]3CN[C@H](C(=O)N(C)C)C3)[C@H](C)[C@H]12", "note": "[Example 22]", "values": [
      {"measurement": "MIC", "setting": "[1]", "result": 32, "unit": "µg/mL"},
      {"measurement": "MIC", "setting": "[2]", "result": 2, "unit": "µg/mL"},
      {"measurement": "MIC", "setting": "[3]", "result": "> 128", "unit": "µg/mL"},
      {"measurement": "MIC", "setting": "[4]", "result": 8, "unit": "µg/mL"},
      {"measurement": "MIC", "setting": "[5]", "result": "64 to 128", "unit": "µg/mL"}
    ]},
    {"smiles": "C[C@@H](NS(C)(=O)=O)[C@H]1C(=O)N2C(C(=O)O)=C(S[C@@H]3CN[C@H](C(=O)N4CCN(C)CC4)C3)[C@H](C)[C@H]12", "note": "[Example 23]", "values": [
      {"measurement": "MIC", "setting": "[1]", "result": 8, "unit": "µg/mL"},
      {"measurement": "MIC", "setting": "[2]", "result": 16, "unit": "µg/mL"},
      {"measurement": "MIC", "setting": "[3]", "result": "32 to 128", "unit": "µg/mL"},
      {"measurement": "MIC", "setting": "[4]", "result": 0.5, "unit": "µg/mL"},
      {"measurement": "MIC", "setting": "[5]", "result": 1, "unit": "µg/mL"}
    ]},
    {"smiles": "C[C@@H](NS(C)(=O)=O)[C@H]1C(=O)N2C(C(=O)O)=C(S[C@@H]3CN[C@H](C(=O)N4CCC(O)CC4)C3)[C@H](C)[C@H]12", "note": "[Example 24]", "values": [
      {"measurement": "MIC", "setting": "[1]", "result": 4, "unit": "µg/mL"},
      {"measurement": "MIC", "setting": "[2]", "result": 16, "unit": "µg/mL"},
      {"measurement": "MIC", "setting": "[3]", "result": "32 to 64", "unit": "µg/mL"},
      {"measurement": "MIC", "setting": "[4]", "result": 0.5, "unit": "µg/mL"},
      {"measurement": "MIC", "setting": "[5]", "result": 1, "unit": "µg/mL"}
    ]},
    {"smiles": "C[C@@H](NS(=O)(=O)C(F)(F)F)[C@H]1C(=O)N2C(C(=O)O)=C(S[C@@H]3CN[C@H](C(=O)N4CCN(C)CC4)C3)[C@H](C)[C@H]12", "note": "[Example 25]", "values": [
      {"measurement": "MIC", "setting": "[1]", "result": 8, "unit": "µg/mL"},
      {"measurement": "MIC", "setting": "[2]", "result": 4, "unit": "µg/mL"},
      {"measurement": "MIC", "setting": "[3]", "result": 128, "unit": "µg/mL"},
      {"measurement": "MIC", "setting": "[4]", "result": 1, "unit": "µg/mL"},
      {"measurement": "MIC", "setting": "[5]", "result": 8, "unit": "µg/mL"}
    ]},
    {"smiles": "CC(=O)OCC(=O)N[C@H](C)[C@H]1C(=O)N2C(C(=O)O)=C(S[C@@H]3CN[C@H](C(=O)N(C)C)C3)[C@H](C)[C@H]12", "note": "[Example 26]", "values": [
      {"measurement": "MIC", "setting": "[1]", "result": 8, "unit": "µg/mL"},
      {"measurement": "MIC", "setting": "[2]", "result": 4, "unit": "µg/mL"},
      {"measurement": "MIC", "setting": "[3]", "result": 128, "unit": "µg/mL"},
      {"measurement": "MIC", "setting": "[4]", "result": 1, "unit": "µg/mL"},
      {"measurement": "MIC", "setting": "[5]", "result": "4 to 8", "unit": "µg/mL"}
    ]},
    {"smiles": "C[C@@H](NS(C)(=O)=O)[C@H]1C(=O)N2C(C(=O)O)=C(S[C@@H]3CN[C@H](C(=O)N4CCOCC4)C3)[C@H](C)[C@H]12", "note": "[Example 27]", "values": [
      {"measurement": "MIC", "setting": "[1]", "result": 4, "unit": "µg/mL"},
      {"measurement": "MIC", "setting": "[2]", "result": 16, "unit": "µg/mL"},
      {"measurement": "MIC", "setting": "[3]", "result": "64 to 128", "unit": "µg/mL"},
      {"measurement": "MIC", "setting": "[4]", "result": 0.5, "unit": "µg/mL"},
      {"measurement": "MIC", "setting": "[5]", "result": 1, "unit": "µg/mL"}
    ]},
    {"smiles": "CCOC(=O)C(=O)N[C@H](C)[C@H]1C(=O)N2C(C(=O)O)=C(S[C@@H]3CN[C@H](C(=O)N(C)C)C3)[C@H](C)[C@H]12", "note": "[Example 28]", "values": [
      {"measurement": "MIC", "setting": "[1]", "result": "4 to 8", "unit": "µg/mL"},
      {"measurement": "MIC", "setting": "[2]", "result": 8, "unit": "µg/mL"},
      {"measurement": "MIC", "setting": "[3]", "result": "4 to 8", "unit": "µg/mL"},
      {"measurement": "MIC", "setting": "[4]", "result": 2, "unit": "µg/mL"},
      {"measurement": "MIC", "setting": "[5]", "result": 2, "unit": "µg/mL"}
    ]},
    {"smiles": "C[C@@H](NS(=O)(=O)C(F)(F)F)[C@H]1C(=O)N2C(C(=O)O)=C(S[C@@H]3CN[C@H](C(=O)N4CCOCC4)C3)[C@H](C)[C@H]12", "note": "[Example 29]", "values": [
      {"measurement": "MIC", "setting": "[1]", "result": "> 128", "unit": "µg/mL"},
      {"measurement": "MIC", "setting": "[2]", "result": 4, "unit": "µg/mL"},
      {"measurement": "MIC", "setting": "[3]", "result": 128, "unit": "µg/mL"},
      {"measurement": "MIC", "setting": "[4]", "result": 1, "unit": "µg/mL"},
      {"measurement": "MIC", "setting": "[5]", "result": 8, "unit": "µg/mL"}
    ]},
    {"smiles": "C[C@@H](NS(=O)(=O)C(F)(F)F)[C@H]1C(=O)N2C(C(=O)O)=C(S[C@@H]3CN[C@H](C(=O)N4CCC(O)CC4)C3)[C@H](C)[C@H]12", "note": "[Example 30]", "values": [
      {"measurement": "MIC", "setting": "[1]", "result": 8, "unit": "µg/mL"},
      {"measurement": "MIC", "setting": "[2]", "result": 2, "unit": "µg/mL"},
      {"measurement": "MIC", "setting": "[3]", "result": 128, "unit": "µg/mL"},
      {"measurement": "MIC", "setting": "[4]", "result": 1, "unit": "µg/mL"},
      {"measurement": "MIC", "setting": "[5]", "result": 8, "unit": "µg/mL"}
    ]},
    {"smiles": "C[C@@H](NC(=O)Cn1cnnn1)[C@H]1C(=O)N2C(C(=O)O)=C(CN3C[C@H](NC(=N)N)[C@@H](O)C3)[C@H](C)[C@H]12", "note": "[Example 600, (4S,5R,6R)-6-((R)-1-(2-(1H-tetrazol-1-yl)acetamido)ethyl)-3-(((3S,4S)-3-guanidino-4-hydroxypyrrolidin-1-yl)methyl)-4-methyl-7-oxo-1-azabicyclo[3.2.0]hept-2-ene-2-carboxylic acid]", "values": [
      {"measurement": "MIC", "setting": "[1]", "result": 4, "unit": "µg/mL"},
      {"measurement": "MIC", "setting": "[2]", "result": 0.5, "unit": "µg/mL"},
      {"measurement": "MIC", "setting": "[3]", "result": 16, "unit": "µg/mL"},
      {"measurement": "MIC", "setting": "[4]", "result": 0.5, "unit": "µg/mL"}
    ]},
    {"smiles": "C[C@@H](NC(=O)Cn1cnnn1)[C@H]1C(=O)N2C(C(=O)O)=C(S[C@@H]3CN[C@H](C(=O)N4CCC5CNCCC54)C3)C[C@H]12", "note": "(stereo partly drawn) [Example 601, (5R,6R)-6-((R)-1-(2-(1H-tetrazol-1-yl)acetamido)ethyl)-3-((3S,5S)-5-(octahydro-1H-pyrrolo[3,2-c]pyridine-1-carbonyl)pyrrolidin-3-ylthio)-7-oxo-1-azabicyclo[3.2.0]hept-2-ene-2-carboxylic acid]", "values": [
      {"measurement": "MIC", "setting": "[1]", "result": 64, "unit": "µg/mL"},
      {"measurement": "MIC", "setting": "[2]", "result": 2, "unit": "µg/mL"},
      {"measurement": "MIC", "setting": "[3]", "result": 128, "unit": "µg/mL"},
      {"measurement": "MIC", "setting": "[4]", "result": 2, "unit": "µg/mL"}
    ]}
  ]
}
